According to patent US20050197350A1, “Novel quinoline, tetrahydroquinazoline, and pyrimidine derivatives and methods of treatment related to the use thereof” (TAISHO PHARMACEUTICAL CO., LTD., priority 2003, published 2005):

Tested on: MCH receptors
Experiment: MCH receptor activity class (method not given)
Settings: MCH receptor activity class 1-3 (percent of control at 10^-7 M or IC50)

| Compound | class |
| --- | --- |
| CN(C)c1ccnc(N[C@H]2CC[C@@H](CNC(=O)Nc3ccccc3C(C)(C)C)CC2)n1 [compound 2430, N-(2-tert-butylphenyl)-N′-[(cis-4-{[4-(dimethylamino)pyrimidin-2-yl]amino}cyclohexyl)methyl]urea] | 1 (Class 1: The value of percent of control at 10^−7 M was less than 40% or the value of IC50 was less than 50 nM.) |

Same assay, conditions: class 1-3 by percent of control at 10^-7 M or IC50

| Compound | class |
| --- | --- |
| CN(C)c1nc(N[C@H]2CC[C@@H](NC(=O)c3ccc(I)cc3)CC2)nc2c1CCCC2 [compound 477] | 3 (Class 3 The value of percent of control at 10^−7 M was more than 60% or the value of IC50 was more than 200 nM.) |
| CN(C)c1nc(N[C@H]2CC[C@@H](NC(=O)C(c3ccccc3)c3ccccc3)CC2)nc2c1CCCC2 [compound 468] | 1 (Class 1: The value of percent of control at 10^−7 M was less than 40% or the value of IC50 was less than 50 nM.) |

Same assay, conditions: class by percent of control at 10^-7 M or IC50

| Compound | class |
| --- | --- |
| CN(C)c1cc(N[C@H]2CC[C@@H](CNC(=O)Cc3c(Cl)ccc(Cl)c3Cl)CC2)nc2ccccc12 [compound 789, N-[(cis-4-{[4-(dimethylamino)quinolin-2-yl]amino}cyclohexyl)methyl]-2-(2,3,6-trichlorophenyl)acetamide] | 1 (Class 1: The value of percent of control at 10^−7 M was less than 40% or the value of IC50 was less than 50 nM.) |
| CN(C)c1ccnc(N[C@H]2CC[C@@H](NC(=O)c3cnc4ccccc4n3)CC2)n1 [compound 332] | 1 (Class 1: The value of percent of control at 10^−7 M was less than 40% or the value of IC50 was less than 50 nM.) |
| CN(C)c1ccnc(N[C@H]2CC[C@@H](CNCc3c[nH]nc3-c3ccc(C(F)(F)F)cc3)CC2)n1 [compound 1256] | 1 (Class 1: The value of percent of control at 10^−7 M was less than 40% or the value of IC50 was less than 50 nM.) |
| COc1ccc(CN[C@H]2CC[C@@H](Nc3nc4c(c(N(C)C)n3)CCCC4)CC2)c(OC)c1 [compound 1335] | 3 (Class 3 The value of percent of control at 10^−7 M was more than 60% or the value of IC50 was more than 200 nM.) |
| COc1ccc(CNC[C@H]2CC[C@@H](Nc3nccc(N(C)C)n3)CC2)cc1 [compound 1262] | 3 (Class 3 The value of percent of control at 10^−7 M was more than 60% or the value of IC50 was more than 200 nM.) |

Same assay, conditions: class by percent of control at 10^−7 M or IC50

| Compound | class |
| --- | --- |
| Cc1cc(N(C)C)nc(N[C@H]2CC[C@@H](NC(=O)c3cc(F)cc(F)c3)CC2)n1 [compound 2968, N-(cis-4-{[4-(dimethylamino)-6-methylpyrimidin-2-yl]amino}cyclohexyl)-3,5-difluorobenzamide] | 1 (Class 1: The value of percent of control at 10^−7 M was less than 40% or the value of IC50 was less than 50 nM.) |
| Cc1cc(N(C)C)nc(N[C@H]2CC[C@@H](NC(=O)c3ccc(F)c(F)c3)CC2)n1 [compound 2988, N-(cis-4-{[4-(dimethylamino)-6-methylpyrimidin-2-yl]amino}cyclohexyl)-3,4-difluorobenzamide] | 1 (Class 1: The value of percent of control at 10^−7 M was less than 40% or the value of IC50 was less than 50 nM.) |
| Cc1cnc(N[C@H]2CC[C@@H](NC(=O)c3ccccc3)CC2)nc1N(C)C [compound 2904, N-(cis-4-{[4-(dimethylamino)-5-methylpyrimidin-2-yl]amino}cyclohexyl)benzamide] | 2 (Class 2: The value of percent of control at 10^−7 M was from 40% to 60% or the value of IC′50 was from 50 nM to 200 nM.) |
| Cc1cnc(N[C@H]2CC[C@@H](NC(=O)N(C)c3ccc(Cl)c(Cl)c3)CC2)nc1N(C)C [compound 3022, N-(3,4-dichlorophenyl)-N′-(cis-4-{[4-(dimethylamino)-5-methylpyrimidin-2-yl]amino}cyclohexyl)-N-methylurea] | 1 (Class 1: The value of percent of control at 10^−7 M was less than 40% or the value of IC50 was less than 50 nM.) |
| Cc1cc(N(C)C)nc(N[C@H]2CC[C@@H](C(=O)NCc3ccc(F)cc3)CC2)n1 [compound 2799, cis-4-{[4-(dimethylamino)-6-methylpyrimidin-2-yl]amino}-N-(4-fluorobenzyl)cyclohexanecarboxamide] | 2 (Class 2: The value of percent of control at 10^−7 M was from 40% to 60% or the value of IC′50 was from 50 nM to 200 nM.) |
